Among the data in ChEMBL document CHEMBL1123310, “Spin probes as mechanistic inhibitors and active site probes of thymidylate synthetase” (J Med Chem, 1986) are K ass, Ki and 2T11 values, retold here.

Experiment [1] addresses T1, Thymidylate synthase (Lactobacillus casei) (UniProt P00469).
T1 sequence (whole entry): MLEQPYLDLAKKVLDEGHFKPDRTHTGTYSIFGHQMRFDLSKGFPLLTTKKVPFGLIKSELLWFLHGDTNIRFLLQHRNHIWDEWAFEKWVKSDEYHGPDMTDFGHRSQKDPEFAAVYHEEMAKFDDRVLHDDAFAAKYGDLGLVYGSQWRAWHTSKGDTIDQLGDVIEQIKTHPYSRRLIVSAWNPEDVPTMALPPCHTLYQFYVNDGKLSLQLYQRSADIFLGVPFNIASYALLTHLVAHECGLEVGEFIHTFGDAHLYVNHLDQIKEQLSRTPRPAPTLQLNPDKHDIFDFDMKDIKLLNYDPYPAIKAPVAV
Description: Association constant (Kassoc) towards Thymidylate synthetase binding site by electron spin resonance. As to conditions: Lacticaseibacillus casei.

Experiment [2] addresses T2, Thymidylate synthase (Lactobacillus casei, UniProt P00469).
T2 sequence (P00469 whole entry): T1 sequence (whole entry)
Description: In vitro inhibitory activity against Thymidylate synthetase was evaluated. Also noted: species or system Lacticaseibacillus casei.

In experiment [3] the target is T1, Thymidylate synthase (Lactobacillus casei). Description: The high gain spectrum and that of thymidylate synthetase both at high and low peaks indicating its binding activity. As to conditions: Lacticaseibacillus casei.
Experiment [4] has as its target T2, Thymidylate synthase. Briefly: In vitro inhibitory activity against Thymidylate synthase was evaluated. Set-up: species or system Lacticaseibacillus casei.
The target in experiment [5] is T1, Thymidylate synthase (Lactobacillus casei). As to conditions: Lacticaseibacillus casei.
Experiment [6] shares this target. As to conditions: Lacticaseibacillus casei. The source holds these as a separate data set.
Description: Association constant (Kassoc) towards Thymidylate synthase binding site by electron spin resonance

Turning to `CC1(C)C=C(C(=O)NC/C=C/c2cn([C@H]3C[C@H](O)[C@@H](CO)O3)c(=O)[nH]c2=O)C(C)(C)N1[O]`, in experiment [1], the K ass came to 190000 M⁻¹. In addition, at Thymidylate synthase [2], the Ki turned out to be 9.2 µM. Moreover, the 2T11 in experiment [3] stood at 60.
Regarding `NC/C=C/c1cn([C@H]2C[C@H](O)[C@@H](COP(=O)(O)O)O2)c(=O)[nH]c1=O`, the affinity at Thymidylate synthase [2], expressed as Ki, was 7.9 µM.
For the compound `CC1(C)CC(NC(=O)CSc2cn([C@H]3C[C@H](O)[C@@H](CO)O3)c(=O)[nH]c2=O)CC(C)(C)N1[O]`, the Ki on Thymidylate synthase [4] turned out to be 89 µM. Also, the 2T11 in experiment [5] turned out to be 61. The same compound yielded a K ass in experiment [6] of 240000 M⁻¹.

As usually defined, the Ki is the dissociation constant of the complex between target and ligand, obtained from inhibition or displacement. Low readings indicate higher affinity, high ones lower affinity.
